Where a name gives a salt, the structure may show the parent alone. Read-outs that look alike come from different tables or passages of the source. Marks after values point to notes of the source that are not given here. Blank lines part the entries; values can stand above or below the molecule they belong to.
Key:
[1] = Dissolution of salts (done on 1 capsule each); format: physicochemical; conditions: for Dissolution in capsule in acetate buffer pH 4.5 medium at 50 rpm at 10 min (% release as free base) / Dissolution in capsule in acetate buffer pH 4.5 medium at 50 rpm at 30 min (% release as free base): acetate buffer pH 4.5, 50 rpm; for Dissolution in capsule in phosphate buffer pH 7.4 medium at 50 rpm at 10 min (% release as free base) / Dissolution in capsule in phosphate buffer pH 7.4 medium at 50 rpm at 30 min (% release as free base): phosphate buffer pH 7.4, 50 rpm
Description: Table 28: Dissolution results of salts (Done on 1 capsule each)

[2] = Hygroscopicity studies (water content after storage at 43 %, 75 % and 93 % relative humidity); format: physicochemical; conditions: for change during the hygroscopicity studies: 43 %, 75 % and 93 % relative humidity, confirmed by DSC of samples kept at 93 % relative humidity for 2 weeks; for Hygroscopicity 2 weeks 43 % rh: 2 weeks at 43 % rh; for Hygroscopicity 2 weeks 43 % rh / Hygroscopicity 2 weeks 75 % rh / Hygroscopicity 2 weeks 93 % rh: % Equilibrium moisture content, ss = semi solid state of sample, β = solid first changed into liquid and solidified again; for Hygroscopicity 2 weeks 75 % rh: 2 weeks at 75 % rh; for Hygroscopicity 2 weeks 93 % rh: 2 weeks at 93 % rh; for Initial water content: initial sample
Description: The salts of the present invention and the free base were studied under three different humidity conditions (43 % relative humidity, 75 % relative humidity, and 93 % relative humidity).

[3] = Evaluation of sitagliptin salts for processability; conditions: for Appearance: powder
Description: Table 29: Evaluation of different Sitagliptin salts for processability

[4] = Solubility in water / aqueous solution; format: physicochemical; conditions: compared to other known salts of sitagliptin
[5] = Stability studies (storage at 60 °C in closed bottles or at 40 °C / 75 % RH in an open bottle; related substances by HPLC); conditions: for Initial Related Substances: before storage; for Related Substances 2 W 40°C/75 % RH open / Related Substances 2 W 60°C closed: 2 weeks, 20160 min; for Related Substances 4 w 40°C/75 % RH closed / Related Substances 4 w 40°C/75 % RH open / Related Substances 4 w 60°C Closed bottle: 4 weeks, 40320 min; for Related Substances 12 weeks 40°C/75 % RH closed bottle / Related Substances 12 weeks 40°C/75 % RH open bottle: 120960 min
[6] = pH of aqueous solution; format: physicochemical; conditions: 2 % aqueous solution
[7] = solid; for Related Substances 4 w 40°C/75 % RH closed / Related Substances 4 w 40°C/75 % RH open / Related Substances 4 w 60°C Closed bottle: 672 h; for Related Substances 12 weeks 40°C/75 % RH closed bottle / Related Substances 12 weeks 40°C/75 % RH open bottle: 2016 h; for Related Substances 2 W 40°C/75 % RH open / Related Substances 2 W 60°C closed: 336 h; for Related Substances 2 W 60°C closed / Related Substances 4 w 60°C Closed bottle: closed bottle
[8] = closed bottle, two weeks at 60 °C
[9] = closed bottle, four weeks at 60 °C

Molecule: Amorphous Sitagliptin Citrate [citrate (amorphous)]
- solid form conversion on humidity storage ([2]; two weeks storage at 93% relative humidity): partial conversion into the respective crystalline form
- Dissolution in capsule in pH 6.8 buffer at 50 rpm at 10 min (% release as free base) [1]: 62.4%
- Dissolution in capsule in pH 6.8 buffer at 50 rpm at 30 min (% Release as free base) [1]: 89.47%
- Dissolution in capsule in water medium at 50 rpm at 10 min (% release as free base) [1]: 75.89%
- Dissolution in capsule in water medium at 50 rpm at 30 min (% release as free base) [1]: 94.23%

Molecule: Sitagliptin succinate Form I [F: Succinate I]
- Related Substances 4 w 40°C/75 % RH closed [7]: 0.29%
- Related Substances 12 weeks 40°C/75 % RH closed bottle [7]: 0.23%
- Related Substances 2 W 40°C/75 % RH open [7]: 0.13%
- Related Substances 4 w 40°C/75 % RH open [7]: 0.25%
- Related Substances 12 weeks 40°C/75 % RH open bottle [7]: 0.16%
- Related Substances 2 W 60°C closed [7]: 0.30%
- Related Substances 4 w 60°C Closed bottle [7]: 0.58%
- Hygroscopicity (water content) ([2]; 2 weeks 43 % rh): 1.36%
- Hygroscopicity (water content) ([2]; 2 weeks 75 % rh): 1.78%
- Hygroscopicity (water content) ([2]; 2 weeks 93 % rh): 19.58** %
- Initial water content ([2]; before humidity storage): 0.90%
- Initial Related Substances [5]: 0.14%

Molecule: N[C@@H](CC(=O)N1CCn2c(nnc2C(F)(F)F)C1)Cc1cc(F)c(F)cc1F [HCl II]
- Dissolution in capsule in acetate buffer pH 4.5 medium at 50 rpm at 10 min (% release as free base) [1]: 93.89%
- Dissolution in capsule in acetate buffer pH 4.5 medium at 50 rpm at 30 min (% release as free base) [1]: 100%
- Dissolution in capsule in pH 6.8 buffer at 50 rpm at 10 min (% release as free base) [1]: 90.13%
- Dissolution in capsule in pH 6.8 buffer at 50 rpm at 30 min (% Release as free base) [1]: 91.21%
- Dissolution in capsule in phosphate buffer pH 7.4 medium at 50 rpm at 10 min (% release as free base) [1]: 93.63%
- Dissolution in capsule in phosphate buffer pH 7.4 medium at 50 rpm at 30 min (% release as free base) [1]: 99.67%

Molecule: N[C@@H](CC(=O)N1CCn2c(nnc2C(F)(F)F)C1)Cc1cc(F)c(F)cc1F [O: Sulfate II]
- Hygroscopicity 2 weeks 43 % rh [2]: 2.59%
- Hygroscopicity 2 weeks 75 % rh [2]: 7.1%
- Hygroscopicity 2 weeks 93 % rh [2]: 7.33%
- Initial water content ([2]; before storage): 1.88%
- Flowability [3]: Good
- Poured density, m/V0 [3]: 0.483 g/ml
- Sticking tendency [3]: Very low
- Tapped density, m/V1250 [3]: 0.508 g/mL
- Apparent Volume V0 [3]: 40 mL
- Apparent Volume V10 [3]: 40 mL
- Apparent Volume V500 [3]: 38 mL
- Apparent Volume V1250 [3]: 38 mL
- Appearance [3]: White to off-white powder with big, coarse and hard particles.
- Related Substances 2 W 40°C/75 % RH open [5]: 0.23%
- Related Substances 2 W 60°C closed [5]: 0.20%
- Related Substances 4 w 40°C/75 % RH closed [5]: 0.24%
- Related Substances 4 w 40°C/75 % RH open [5]: 0.36%
- Related Substances 4 w 60°C Closed bottle ([5]; closed bottle): 0.31%
- Related Substances 12 weeks 40°C/75 % RH closed bottle ([5]; closed bottle): 0.25%
- Related Substances 12 weeks 40°C/75 % RH open bottle ([5]; open bottle): 0.46%
- Initial Related Substances [5]: 0.20%

Molecule: N[C@@H](CC(=O)N1CCn2c(nnc2C(F)(F)F)C1)Cc1cc(F)c(F)cc1F [A: Phosphate, Sitagliptin Phosphate]
- Hygroscopicity (water content) ([2]; 2 weeks 43 % rh): 0.41%
- Hygroscopicity (water content) ([2]; 2 weeks 75 % rh): 0.48%
- Hygroscopicity (water content) ([2]; 2 weeks 93 % rh): 0.82%
- change during the hygroscopicity studies [2]: did not show much change
- Initial water content ([2]; before humidity storage): 0.46%
- Related Substances 2 W 40°C/75 % RH open [5]: 0.21%
- Related Substances 2 W 60°C closed [5]: 0.50%
- Related Substances 4 w 40°C/75 % RH closed [5]: 0.31%
- Related Substances 4 w 40°C/75 % RH open [5]: 0.16%
- Related Substances 4 w 60°C Closed bottle ([5]; closed bottle): 0.38%
- Related Substances 12 weeks 40°C/75 % RH closed bottle ([5]; closed bottle): 0.57%
- Related Substances 12 weeks 40°C/75 % RH open bottle ([5]; open bottle): 0.37%
- stability (degradation, related substances by HPLC) [5, 9]: stable
- stability (degradation, related substances by HPLC) [5, 8]: stable
- Initial Related Substances [5]: 0.39%
- stability (degradation, related substances by HPLC) ([5]; open bottle, twelve weeks at 40 °C and 75 % RH): stable

Further lines, with some results ahead:

- Dissolution in capsule in acetate buffer pH 4.5 medium at 50 rpm at 10 min (% release as free base) [1]: 48.08%
- Dissolution in capsule in acetate buffer pH 4.5 medium at 50 rpm at 30 min (% release as free base) [1]: 98.48%
- Dissolution in capsule in pH 6.8 buffer at 50 rpm at 10 min (% release as free base) [1]: 86.65%
- Dissolution in capsule in pH 6.8 buffer at 50 rpm at 30 min (% Release as free base) [1]: 91.12%
- Dissolution in capsule in phosphate buffer pH 7.4 medium at 50 rpm at 10 min (% release as free base) [1]: 80.81%
- Dissolution in capsule in phosphate buffer pH 7.4 medium at 50 rpm at 30 min (% release as free base) [1]: 99.18%
- Dissolution in capsule in water medium at 50 rpm at 10 min (% release as free base) [1]: 46.63%
- Dissolution in capsule in water medium at 50 rpm at 30 min (% release as free base) [1]: 96.30%
Molecule: N[C@@H](CC(=O)N1CCn2c(nnc2C(F)(F)F)C1)Cc1cc(F)c(F)cc1F [Phosphate H2O Ref]

- change during the hygroscopicity studies [2]: did not show much change
- Dissolution in capsule in pH 6.8 buffer at 50 rpm at 10 min (% release as free base) [1]: 84.72%
- Dissolution in capsule in pH 6.8 buffer at 50 rpm at 30 min (% Release as free base) [1]: 90.94%
- Dissolution in capsule in water medium at 50 rpm at 10 min (% release as free base) [1]: 90.22%
- Dissolution in capsule in water medium at 50 rpm at 30 min (% release as free base) [1]: 98.89%
Molecule: Sitagliptin Malate

- Hygroscopicity 2 weeks 43 % rh [2]: 3.69%
- Hygroscopicity 2 weeks 75 % rh [2]: 3.67%
- Hygroscopicity 2 weeks 93 % rh [2]: 3.73%
- Initial water content ([2]; before storage): 3.59%
- Flowability [3]: Good
- Poured density, m/V0 [3]: 0.52 g/ml
- Sticking tendency [3]: None
- Tapped density, m/V1250 [3]: 0.57 g/mL
- Apparent Volume V0 [3]: 190 mL
- Apparent Volume V10 [3]: 185 mL
- Apparent Volume V500 [3]: 175 mL
- Apparent Volume V1250 [3]: 174 mL
Molecule: N[C@@H](CC(=O)N1CCn2c(nnc2C(F)(F)F)C1)Cc1cc(F)c(F)cc1F [M: Phosphate]
- Appearance [3]: White to off-white powder, fine powder, few agglomerates.

- solubility in water [4]: very high solubility in water
- stability (degradation, related substances by HPLC) ([5]; closed bottle, four weeks at 60 °C, listed as sitagliptin hemisulphate): excellent stability
- stability (degradation, related substances by HPLC) [5, 8]: stable
Molecule: N[C@@H](CC(=O)N1CCn2c(nnc2C(F)(F)F)C1)Cc1cc(F)c(F)cc1F [sulfate (non solvated), Sitagliptin Sulfate Form II]
- change during the hygroscopicity studies ([2]; listed as sitagliptin sulfate (non solvated)): increase in water content corresponding to conversion of hemihydrate to dihydrate

- hygroscopicity ([2]; prolonged storage at 93 % relative humidity): not hygroscopic
- pH [6]: 5.8 ± 0.1
- stability (degradation, related substances by HPLC) [5, 9]: excellent stability
Molecule: N[C@@H](CC(=O)N1CCn2c(nnc2C(F)(F)F)C1)Cc1cc(F)c(F)cc1F [sitagliptin hydrochloride, Sitagliptin Hydrochloride Form II]

- Related Substances 4 w 40°C/75 % RH closed [7]: 0.07%
- Related Substances 12 weeks 40°C/75 % RH closed bottle [7]: 0.13%
- Related Substances 2 W 40°C/75 % RH open [7]: 0.01%
- Related Substances 4 w 40°C/75 % RH open [7]: 0.06%
- Related Substances 12 weeks 40°C/75 % RH open bottle [7]: 0.11%
- Related Substances 2 W 60°C closed [7]: 0.01%
- Related Substances 4 w 60°C Closed bottle [7]: 0.03%
- Hygroscopicity (water content) ([2]; 2 weeks 43 % rh): 1.058%
- Hygroscopicity (water content) ([2]; 2 weeks 75 % rh): 1.078%
- Hygroscopicity (water content) ([2]; 2 weeks 93 % rh): 1.168%
- change during the hygroscopicity studies [2]: did not show much change
- Initial water content ([2]; before humidity storage): 0.89%
- Initial Related Substances [5]: 0%
Molecule: Sitagliptin Fumarate Form I [D:Fumarate I]
